According to paper PMC7830924, “Discovery of Natural Inhibitors of Cholinesterases from Hydrangea: In Vitro and In Silico Approaches” (Nutrients, 2021):

Key:
BChE = molecular target: T1, BChE (Homo sapiens, UniProt P06276); experiment: BChE inhibition assay and kinetic study; assay type: biochemical; details: for BChE Inhibition Type: determined by Dixon and Lineweaver–Burk plots; for IC50: mean ± S.D. of triplicate experiments, substrate butyrylthiocholine chloride; for Ki: obtained by Dixon plot
T1 construct: purchased Sigma-Aldrich
Method: (§1) Cholinesterases, trypsin, chymotrypsin, elastase and BACE1, assays were performed according to the previous methods. AChE, BChE, trypsin, chymotrypsin and elastase were assayed according to the manual depicted in the reference using ACh iodide, butyrylthiocholine chloride, N-benzoyl-L-Arg-pNA, N-benzoyl-L-Tyr-pNA and N-succinyl-Ala-Ala-Ala-pNA as substrates, respectively. BACE1 assay was achieved using a Rh-[…]-Quencher as a substrate. […] The inhibitory constant (Ki) was obtained by Dixon plot, and Vmax and Km were defined by Lineweaver–Burk plots. These kinetic parameters were calculated using the SigmaPlot™ (version 12.3, Systat Software, Inc., San Jose, CA, USA).

BACE1 = test system: T2, BACE1; experiment: BACE1 FRET assay (enzyme selectivity); assay type: biochemical; details: mean ± SD of triplicate
T2 construct: purchased Pan Vera
Method: A beta-site APP cleaving enzyme 1 (BACE1) fluorescence resonance energy transfer (FRET) assay kit was purchased from Pan Vera (Madison, WI, USA).
as §1

Trypsin = Trypsin inhibition assay (enzyme selectivity); assay type: biochemical; details: mean ± SD of triplicate
Method: as §1

AChE = molecular target: T3, AChE (Homo sapiens, UniProt P22303); experiment: biochemical; details: for AChE Inhibition Type: determined by Dixon and Lineweaver–Burk plots; for IC50: mean ± S.D. of triplicate experiments, substrate ACh iodide; for Ki: obtained by Dixon plot
T3 construct: purchased Sigma-Aldrich
Method: as §1

Chymotrypsin = test system: T4, Chymotrypsin; experiment: Chymotrypsin inhibition assay (enzyme selectivity); assay type: biochemical; details: mean ± SD of triplicate
T4 construct: purchased Sigma-Aldrich
Method: as §1

Elastase = Elastase inhibition assay (enzyme selectivity); assay type: biochemical; details: mean ± SD of triplicate
Method: as §1

T1 sequence (P06276 29-602): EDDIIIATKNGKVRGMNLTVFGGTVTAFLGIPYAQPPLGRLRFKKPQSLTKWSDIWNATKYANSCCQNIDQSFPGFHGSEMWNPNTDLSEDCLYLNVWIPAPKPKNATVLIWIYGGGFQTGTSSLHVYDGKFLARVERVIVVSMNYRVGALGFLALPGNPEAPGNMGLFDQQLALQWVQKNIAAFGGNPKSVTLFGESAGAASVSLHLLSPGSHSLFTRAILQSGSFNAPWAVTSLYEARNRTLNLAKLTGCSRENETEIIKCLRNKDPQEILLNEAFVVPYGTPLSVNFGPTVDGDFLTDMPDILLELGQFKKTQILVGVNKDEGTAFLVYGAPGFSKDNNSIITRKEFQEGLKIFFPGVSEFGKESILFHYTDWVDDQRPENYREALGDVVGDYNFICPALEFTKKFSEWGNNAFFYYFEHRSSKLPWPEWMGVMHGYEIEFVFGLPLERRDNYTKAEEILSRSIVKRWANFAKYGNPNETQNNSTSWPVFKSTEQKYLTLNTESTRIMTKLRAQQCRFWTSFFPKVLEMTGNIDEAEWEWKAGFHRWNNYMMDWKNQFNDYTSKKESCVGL
T3 sequence (P22303 32-614): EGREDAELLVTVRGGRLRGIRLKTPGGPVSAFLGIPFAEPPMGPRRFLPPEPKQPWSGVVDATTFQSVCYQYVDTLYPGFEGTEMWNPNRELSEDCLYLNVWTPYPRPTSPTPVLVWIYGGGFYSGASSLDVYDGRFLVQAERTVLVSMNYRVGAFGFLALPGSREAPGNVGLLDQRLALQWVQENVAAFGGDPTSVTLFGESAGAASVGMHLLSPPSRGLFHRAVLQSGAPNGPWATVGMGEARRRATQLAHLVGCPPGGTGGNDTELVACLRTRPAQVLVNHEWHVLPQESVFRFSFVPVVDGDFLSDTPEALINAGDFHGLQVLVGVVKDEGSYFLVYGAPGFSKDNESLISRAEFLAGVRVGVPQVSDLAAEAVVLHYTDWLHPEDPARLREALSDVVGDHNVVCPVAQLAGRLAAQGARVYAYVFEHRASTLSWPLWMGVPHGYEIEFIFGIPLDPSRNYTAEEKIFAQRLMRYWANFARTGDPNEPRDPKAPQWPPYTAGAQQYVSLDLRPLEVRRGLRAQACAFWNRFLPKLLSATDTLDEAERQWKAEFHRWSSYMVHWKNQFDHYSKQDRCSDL

`COc1ccc2c3c1O[C@H]1C[C@@H](O)C=C[C@@]31CCN(C)C2` [Galantamine, reference compound] was tested, and the “BChE Inhibition Type” value (BChE) was “Competitive”.

`CC(=O)OC[C@H]1O[C@@H](Oc2cccc3c2C(=O)O[C@@H](c2ccc(OC(C)=O)cc2)C3)[C@H](OC(C)=O)[C@@H](OC(C)=O)[C@@H]1OC(C)=O` [HGP, hydrangenol 8-O-glucoside pentaacetate] was tested, and the “Inhibitory activity (%) against BACE1” value (BACE1; compound 50 µM) was 20.02 ± 0.52%, the “Inhibitory activity (%) against BACE1” value (BACE1; compound 100 µM) was 25.21 ± 1.60% and the “Inhibitory activity (%) against Trypsin” value (Trypsin; compound 50 µM) was 1.26 ± 3.36%. For the same molecule, the “Inhibitory activity (%) against Trypsin” value (Trypsin; compound 100 µM) was 3.12 ± 1.69%, the “BChE Inhibition Type” value (BChE) was “Non-competitive” and the IC50 (BChE) was 41 ± 3.03 µM. For the same molecule, the Ki (BChE) was 44.9 µM, the “AChE Inhibition Type” value (AChE) was “Non-competitive” and the IC50 (AChE) was 22.7 ± 1.63 µM. For the same molecule, the Ki (AChE) was 36.1 µM, the “Inhibitory activity (%) against Chymotrypsin” value (Chymotrypsin; compound 50 µM) was 7.16 ± 3.38% and the “Inhibitory activity (%) against Chymotrypsin” value (Chymotrypsin; compound 100 µM) was 5.15 ± 3.70%. The “Inhibitory activity (%) against Elastase” value (Elastase; compound 50 µM) was 3.77 ± 1.66% and the “Inhibitory activity (%) against Elastase” value (Elastase; compound 100 µM) was 1.47 ± 1.31%.

In the case of `O=C1OC(c2ccc(O)cc2)Cc2cc(O)cc(O)c21` (centres unmarked) [TC, thunberginol C], the “Inhibitory activity (%) against BACE1” value (BACE1; compound 50 µM) is reported as 25.81 ± 3.11%, the “Inhibitory activity (%) against BACE1” value (BACE1; compound 100 µM) is reported as 28.68 ± 1.87% and the “Inhibitory activity (%) against Trypsin” value (Trypsin; compound 50 µM) is reported as −0.27 ± 1.51%. For the same molecule, the “Inhibitory activity (%) against Trypsin” value (Trypsin; compound 100 µM) was 0.07 ± 2.00%, the “BChE Inhibition Type” value (BChE) was “Non-competitive” and the IC50 (BChE) was 42.4 ± 3.67 µM. For the same molecule, the Ki (BChE) was 49.2 µM, the “AChE Inhibition Type” value (AChE) was “Non-competitive” and the IC50 (AChE) was 42 ± 1.06 µM. For the same molecule, the Ki (AChE) was 45.6 µM, the “Inhibitory activity (%) against Chymotrypsin” value (Chymotrypsin; compound 50 µM) was 6.04 ± 2.42% and the “Inhibitory activity (%) against Chymotrypsin” value (Chymotrypsin; compound 100 µM) was 8.50 ± 1.40%. The “Inhibitory activity (%) against Elastase” value (Elastase; compound 50 µM) was 1.89 ± 1.09% and the “Inhibitory activity (%) against Elastase” value (Elastase; compound 100 µM) was 0.42 ± 0.36%.
